From publication PMC5602130, “Food and Sex-Related Impacts on the Pharmacokinetics of a Single-Dose of Ginsenoside Compound K in Healthy Subjects” (Frontiers in Pharmacology, 2017)
Like-named read-outs stand apart in the source and are kept apart here.

Key:
[1] = design: method as in unpublished; details: ref unpublished, cited from earlier work
[2] = Food-effect two-period crossover trial: plasma pharmacokinetics after a single 200 mg oral dose of Ginsenoside CK Tablets; assay type: in vivo, human; details: for Tmax: median (range)
Protocol: The food-effect trial was an open-label, randomized, two-period, two-treatment crossover trial, carried out from 15 January to 31 March 2015. Subjects (n = 24) were admitted to the clinical facility (Center of Clinical Pharmacology, the Third Xiangya Hospital, Central South University, Changsha, China) and randomized to receive a single 200 mg oral dose of Ginsenoside CK Tablets (4 × 50 mg tablets) either after a 10 h-fasting period or within 30 min after beginning the consumption of a recommended high-fat, high calorie breakfast (150 calories of protein, 250 calories of carbohydrates, 500 to 600 calories of fat; total calories approximately 800–1,000). Tablets were administered with 250 mL of water, to each subject, in each treatment period. Drinking was prohibited for 2 h before and after medication. Apart from this, the amount and time of drinking were not strictly controlled. Subjects had unified, standard meals 4 and 10 h after drug administration. The alternate treatment was conducted after a 14-day washout period.
Serial blood samples (5 mL) for PK assessment were collected from an indwelling catheter or by direct venipuncture prior to the administration (t = 0) and 0.25, 0.5, 1, 1.5, 2, 2.5, 3, 3.5, 4, 5, 6, 8, 12, 24, 36, 48, 72, and 96 h after the administration of ginsenoside CK. We inferred that these sampling times were sufficient for this trial, based on international guidelines (FDA, [2003]; CFDA, [2005]) and our previous results, since the sampling time is longer than at least three terminal half-lives of the drug. Additionally, the mean plasma concentrations of both CK and 20(S)-PPD at 96 h were considerably <1/20 of their Cmax even when the single oral dose at 800 mg (unpublished). Plasma was separated in blood collection tubes by centrifugation (3,000 rpm, 10 min) at 4°C within 1 h after sampling, transferred to labeled storage tubes and stored at −70°C pending workup and analysis.
Descriptive statistics of PK parameters were calculated using established non-compartmental methods, utilizing the WinNonLin version 6.1 software (Pharsight Corporation, USA). The PK parameters determined for each participant included apparent terminal half-life (t1/2), maximum plasma concentration (Cmax), time to Cmax (tmax), area under the plasma concentration-time curve from the time of administration up to the last time point with a measurable concentration post-dose (AUClast), AUC extrapolated to infinity (AUCinf), apparent volume of distribution (V/F), apparent plasma clearance (CL/F) after extravascular administration, mean residence time (MRTlast and MRTinf), and the cumulative excretion rate from urine. The t1/2 was estimated as (ln2)/K, where K represented the slope of the terminal phase of plasma concentration-time profile and was assessed with a weighting factor of 1, using least squares (log-linear regression of at least three data points). The Cmax and tmax were obtained from experimental observations. The values of AUC were calculated using conventional trapezoidal and log-trapezoidal methods and the extrapolated area (Rowland and Tozer, [1995]). CL/F and V/F were calculated as dose/AUCinf and (CL/F)/K, respectively. MRT was calculated as MRT = AUMC/AUC, where AUMC is the area under the first moment curve. The cumulative excretion rate was calculated as the amount of unchanged drug over a time interval in the urine divided by dose, and was expressed as a percentage.
All samples were detected using a LC-MS/MS (API 4000, ABI Company, USA) method, validated at the Institute of Clinical Pharmacology, Central South University (Changsha, China). Concentrations of CK and 20(S)-PPD were measured using a triple quadrupole tandem mass spectrometer in multiple reaction monitoring (MRM) mode, via a positive electrospray ionization source at m/z 621.4→ 160.8 for the CK and m/z 461.5→425.3 for 20(S)-PPD, with a dwell time of 200 ms. […]

[3] = both sexes, human, plasma, po, 200 mg, single oral 200 mg CK, FO, all subjects
[4] = female, human, plasma, po, 200 mg, single oral 200 mg CK, FO
[5] = female, human, plasma, po, 200 mg, single oral 200 mg CK, HF
[6] = geometric mean ratio FO vs. HF, n = 24
[7] = human, plasma, po, 200 mg, single oral 200 mg CK, FO, all subjects
[8] = human, plasma, po, 200 mg, single oral 200 mg CK, HF, all subjects
[9] = male, human, plasma, po, 200 mg, single oral 200 mg CK, FO
[10] = male, human, plasma, po, 200 mg, single oral 200 mg CK, HF
[11] = plasma, single oral 200 mg CK, FO, female
[12] = plasma, single oral 200 mg CK, FO, male
[13] = plasma, single oral 200 mg CK, HF, male
[14] = single oral 200 mg CK, FO, all subjects
[15] = single oral 200 mg CK, FO, female
[16] = single oral 200 mg CK, FO, male
[17] = single oral 200 mg CK, HF, all subjects
[18] = single oral 200 mg CK, HF, female
[19] = single oral 200 mg CK, HF, male

CC(C)=CCCC(C)(OC1OC(CO)C(O)C(O)C1O)C1CCC2(C)C1C(O)CC1C3(C)CCC(O)C(C)(C)C3CCC12C [CK, 20-O-beta-D-glucopyranosyl-20(S)-protopanaxadiol]
Effects on vital signs, laboratory tests or 12-lead ECG ([1]; dose range 100–400 mg): no significant effects | Dose range over which exposure increased linearly ([1]; previous clinical trial): 100 to 400 mg | Mean plasma concentration at 96 h as fraction of Cmax ([1]; single oral dose at 800 mg): < 1/20 | Increase of Cmax, AUClast and AUCinf after HF meal compared to the FO condition ([2]; 24 subjects): about 2 fold | lgAUClast GMR (90%CI) ([2]; FO vs. HF (Female), n = 12): 0.38 (0.28–0.53) | lgCmax GMR (90%CI) ([2]; FO vs. HF (Female), n = 12): 0.45 (0.33–0.62) | lgAUClast GMR (90%CI) ([2]; FO vs. HF (Male), n = 12): 0.49 (0.42–0.57) | lgCmax GMR (90%CI) ([2]; FO vs. HF (Male), n = 12): 0.55 (0.46–0.65) | lgAUClast GMR (90%CI) ([2]; M vs. F (FO), n = 12): 0.74 (0.54–1.02) | lgCmax GMR (90%CI) ([2]; M vs. F (FO), n = 12): 0.77 (0.57–1.04) | lgAUClast GMR (90%CI) ([2]; M vs. F (HF), n = 12): 0.59 (0.46–0.75) | lgCmax GMR (90%CI) ([2]; M vs. F (HF), n = 12): 0.64 (0.46–0.88) | Subjects having measurable CK concentrations at 0.25 h after administration ([2]; after a meal, 20 of 24 subjects): 83% | half-life ([2]; both sexes, human, plasma, oral, 200 mg, FO and HF, male and female groups, read-out: mean t1/2, range over all treatments): 24 to 28.4 h | AUC(0-inf) [2, 3]: 5880 ng·h/mL | AUC(0-t) [2, 3]: 5750 ng·h/mL | AUC(0-t) ([2]; both sexes, human, plasma, po, 200 mg, single oral 200 mg CK, HF, all subjects): 12600 ng·h/mL | Tmax [2, 4]: 3.8 h | Cmax ([2]; female, human, plasma, po, 200 mg, plasma, single oral 200 mg CK, FO, female, read-out: Cmax): 921 ± 505 ng/mL | half-life ([2]; female, human, plasma, po, 200 mg, plasma, single oral 200 mg CK, FO, female, read-out: t1/2 (converted)): 26.9 ± 5.4 h | Cmax ([2]; female, human, plasma, po, 200 mg, plasma, single oral 200 mg CK, HF, female, read-out: Cmax): 1840 ng/mL | half-life ([2]; female, human, plasma, po, 200 mg, plasma, single oral 200 mg CK, HF, female, read-out: t1/2 (converted)): 25.6 ± 3.5 h | MRT inf [2, 4]: 14.5 ± 2.1 h | MRT last [2, 4]: 11.6 ± 1 h | MRT inf [2, 5]: 14.6 ± 1.5 h | MRT last [2, 5]: 12.2 ± 1 h | AUC(0-inf) [2, 4]: 6900 ng·h/mL | AUC(0-t) [2, 4]: 6750 ng·h/mL | AUC(0-inf) [2, 5]: 15900 ng·h/mL | AUC(0-t) [2, 5]: 15600 ng·h/mL | lgAUClast GMR (90%CI) [2, 6]: 0.43 (0.36–0.51) | lgCmax GMR (90%CI) [2, 6]: 0.50 (0.42–0.59) | Tmax [2, 7]: 3.6 h | half-life ([2]; human, plasma, po, 200 mg, plasma, single oral 200 mg CK, FO (fasting overnight), all subjects, read-out: t1/2 (converted)): 27.7 ± 7.9 h | Cmax ([2]; human, plasma, po, 200 mg, plasma, single oral 200 mg CK, FO, all subjects, read-out: Cmax): 797 ± 406 ng/mL | half-life ([2]; human, plasma, po, 200 mg, plasma, single oral 200 mg CK, HF (high-fat meal), all subjects, read-out: t1/2 (converted)): 24.8 ± 3 h | Cmax ([2]; human, plasma, po, 200 mg, plasma, single oral 200 mg CK, HF, all subjects, read-out: Cmax): 1570 ng/mL | MRT inf [2, 7]: 15.1 ± 4.3 h | MRT last [2, 7]: 11.7 ± 1.2 h | MRT inf [2, 8]: 14.6 ± 1.7 h | MRT last [2, 8]: 12.3 ± 1.2 h | Tmax [2, 9]: 3.4 h | Cmax ([2]; male, human, plasma, po, 200 mg, plasma, single oral 200 mg CK, FO, male, read-out: Cmax): 672 ± 236 ng/mL | half-life ([2]; male, human, plasma, po, 200 mg, plasma, single oral 200 mg CK, FO, male, read-out: t1/2 (converted)): 28.4 ± 10 h | Cmax ([2]; male, human, plasma, po, 200 mg, plasma, single oral 200 mg CK, HF, male, read-out: Cmax): 1300 ng/mL | half-life ([2]; male, human, plasma, po, 200 mg, plasma, single oral 200 mg CK, HF, male, read-out: t1/2 (converted)): 24 ± 2.4 h | MRT inf [2, 9]: 15.7 ± 5.7 h | MRT last [2, 9]: 11.9 ± 1.3 h | MRT inf [2, 10]: 14.5 ± 1.9 h | MRT last [2, 10]: 12.4 ± 1.4 h | AUC(0-inf) [2, 9]: 4860 ng·h/mL | AUC(0-t) [2, 9]: 4750 ng·h/mL | AUC(0-inf) [2, 10]: 9810 ng·h/mL | AUC(0-t) [2, 10]: 9630 ng·h/mL | AUClast [2, 11]: 6,747.5 ± 3,408.7 h·ng·ml^−1 | Cmax [2, 11]: 921.4 ± 505.1 ng/mL | AUCinf [2, 12]: 4,857.1 ± 1,723.2 h·ng·ml^−1 | AUClast [2, 12]: 4,749.9 ± 1,718.1 h·ng·ml^−1 | Cmax [2, 12]: 672.2 ± 235.8 ng/mL | Cmax ([2]; plasma, single oral 200 mg CK, HF, female): 1,838.6 ± 404.4 ng·ml^−1 | AUClast [2, 13]: 9,633.1 ± 3,313.5 h·ng·ml^−1 | Cmax [2, 13]: 1,302.0 ± 632.9 ng·ml^−1 | CL/F [2, 14]: 43.4 ± 24.2 L/h | V/F [2, 14]: 1,875 ± 1,899 L | CL/F [2, 15]: 38.0 ± 21.8 L/h | V/F [2, 15]: 1,427 ± 699 L | CL/F [2, 16]: 48.8 ± 26.3 L/h | V/F [2, 16]: 2,323 ± 2,572 L | CL/F [2, 17]: 18.2 ± 9.8 L/h | V/F [2, 17]: 652 ± 381 L | CL/F [2, 18]: 12.8 ± 1.8 L/h | V/F [2, 18]: 477 ± 109 L | CL/F [2, 19]: 23.6 ± 11.6 L/h | V/F [2, 19]: 828 ± 475 L
